Measured values taken from ChEMBL document CHEMBL1136143, “Synthesis and activity of novel benzoxazole derivatives of mannopeptimycin glycopeptide antibiotics” (2003).
≈ marks a conversion by molar mass, not a printed value.

What was measured:
Format in all cases: functional
Staphylococcus aureus [1] = test: In vitro minimum inhibitory concentration against Methicillin-resistant Staphylococcus aureus(GC 4544)
Enterococcus faecium [2] = test: In vitro minimum inhibitory concentration against vancomycin-resistant Enterococcus faecium (GC 4558)
Enterococcus faecium [3] = test: In vitro minimum inhibitory concentration against vancomycin-susceptible Enterococcus faecium (GC 4557)
Bacillus cereus = test: In vitro minimum inhibitory concentration against Bacillus cereus (GC 4561) assay organism
[4] = test system: Staphylococcus haemolyticus; test: In vitro minimum inhibitory concentration against methicillin-resistant Coagulase-negative Staphylococci (MRCNS) (GC 4548))
Enterococcus faecalis [5] = test: In vitro minimum inhibitory concentration against vancomycin-susceptible Enterococcus faecalis (GC 4552)
Streptococcus pneumoniae [6] = test: In vitro minimum inhibitory concentration against Penicillin resistant Streptococcus pneumoniae (GC 1894)
Staphylococcus aureus [7] = test: In vitro minimum inhibitory concentration against glycopeptide tntermediate Staphylococcus aureus (GC 3051)
Streptococcus pneumoniae [8] = test: In vitro minimum inhibitory concentration against Penicillin susceptible Streptococcus pneumoniae (GC 4565)
Staphylococcus aureus [9] = test: In vitro minimum inhibitory concentration against Methicillin-resistant Staphylococcus aureus (GC 4542)
Staphylococcus aureus [10] = test: In vitro minimum inhibitory concentration against Methicillin-resistant Staphylococcus aureus (GC 4543)
Enterococcus faecium [11] = test: In vitro minimum inhibitory concentration against vancomycin-resistant Enterococcus faecium (GC 2243)
[12] = test system: Staphylococcus haemolyticus; test: In vitro minimum inhibitory concentration against methicillin-susceptible Coagulase-negative Staphylococci (MSCNS) (GC 6257)
[13] = test system: Staphylococcus haemolyticus; test: In vitro minimum inhibitory concentration against methicillin-resistant Coagulase-negative Staphylococci (MRCNS) (GC 4547))
Enterococcus faecalis [14] = test: In vitro minimum inhibitory concentration against vancomycin-susceptible Enterococcus faecalis (GC 4553)
Enterococcus sp. = test: In vitro minimum inhibitory concentration against Enterococcus species (11 strains, including VRE)
Enterococcus faecium [15] = test: In vitro minimum inhibitory concentration against vancomycin-susceptible Enterococcus faecium (GC 4556)
Enterococcus faecalis [16] = test: In vitro minimum inhibitory concentration against vancomycin-susceptible Enterococcus faecalis (GC 4555)
Streptococcus agalactiae = test: In vitro minimum inhibitory concentration against Streptococcus agalactiae (GC4564)
Streptococcus pneumoniae [17] = test: In vitro minimum inhibitory concentration against Penicillin susceptible Streptococcus pneumoniae (GC 6242)
Staphylococcus aureus [18] = test: In vitro minimum inhibitory concentration against Methicillin-resistant Staphylococcus aureus (GC 2216)
Enterococcus faecalis [19] = test: In vitro minimum inhibitory concentration against vancomycin-resistant Enterococcus faecalis (GC 3059)
Staphylococcus aureus [20] = test: In vitro minimum inhibitory concentration against Staphylococcus aureus (10strains, including MRSA)
Micrococcus luteus = test: In vitro minimum inhibitory concentration against Micrococcus lutea (GC 4562)
Staphylococcus aureus [21] = test: In vitro minimum inhibitory concentration against Methicillin-resistant Staphylococcus aureus(GC 4541)
Enterococcus faecalis [22] = test: In vitro minimum inhibitory concentration against vancomycin-susceptible Enterococcus faecalis (GC 4554)
Staphylococcus aureus [23] = test: In vitro minimum inhibitory concentration against glycopeptide tntermediate Staphylococcus aureus (GC 3066)
Enterococcus faecalis [24] = test: In vitro minimum inhibitory concentration against vancomycin-resistant Enterococcus faecalis (GC 6189)
Streptococcus = test: In vitro minimum inhibitory concentration against Streptococcus Species (5 strains, including PRSP)
[25] = test system: Staphylococcus haemolyticus; test: In vitro minimum inhibitory concentration against methicillin-susceptible Coagulase-negative Staphylococci (MSCNS) (GC 4551)
[26] = test system: Staphylococcus haemolyticus; test: In vitro minimum inhibitory concentration against methicillin-resistant Coagulase-negative Staphylococci (MRCNS) (GC 4546))
[27] = test system: Staphylococcus haemolyticus; test: In vitro minimum inhibitory concentration against methicillin-susceptible Coagulase-negative Staphylococci (MSCNS) (GC 4549))
Streptococcus pyogenes = test: In vitro minimum inhibitory concentration against Streptococcus pyogenes (GC 4563)
Enterococcus faecalis [28] = test: In vitro minimum inhibitory concentration against vancomycin-susceptible Enterococcus faecalis (GC 2691)
Staphylococcus aureus [29] = test: In vitro minimum inhibitory concentration against Methicillin-resistant Staphylococcus aureus (GC 1131)
Enterococcus faecalis [30] = test: In vitro minimum inhibitory concentration against vancomycin-resistant Enterococcus faecalis (GC 2242)
Staphylococcus aureus [31] = test: In vitro minimum inhibitory concentration against Methicillin-resistant Staphylococcus aureus(GC 4545)

Which MIC (Staphylococcus aureus [1]) does the source give for `C[C@@H](c1ccccc1)[C@@H]1NC(=O)CNC(=O)[C@H](CO)NC(=O)[C@@H]([C@@H](O)[C@@H]2CN=C(N)N2[C@H]2O[C@H](CO)[C@@H](O)[C@H](O)[C@@H]2O)NC(=O)[C@H]([C@H](O)[C@@H]2CN=C(N)N2)NC(=O)[C@@H](Cc2ccc3nc(SCC(=O)c4ccc(Cl)cc4)oc3c2)NC1=O` here?
Its MIC is 4 µg/mL (≈ 3.39 µM).

What about the MIC (Enterococcus faecium [2]) of the same molecule?
The MIC was 4 µg/mL (≈ 3.39 µM).

What about the MIC (Enterococcus faecium [3]) of the same molecule?
The MIC was 2 µg/mL (≈ 1.69 µM).

And the MIC (Bacillus cereus)?
Its MIC is 1 µg/mL (≈ 0.847 µM).

What about the MIC [4] of the same molecule?
Its MIC is 2 µg/mL (≈ 1.69 µM).

What about the MIC (Enterococcus faecalis [5]) of the same molecule?
Its MIC is 2 µg/mL (≈ 1.69 µM).

And the MIC (Streptococcus pneumoniae [6])?
The MIC was 8 µg/mL (≈ 6.78 µM).

What about the MIC (Staphylococcus aureus [7]) of the same molecule?
The MIC was 4 µg/mL (≈ 3.39 µM).

And the MIC (Streptococcus pneumoniae [8])?
Its MIC is 8 µg/mL (≈ 6.78 µM).

And the MIC (Staphylococcus aureus [9])?
Its MIC is 4 µg/mL (≈ 3.39 µM).

What about the MIC (Staphylococcus aureus [10]) of the same molecule?
The MIC was 2 µg/mL (≈ 1.69 µM).

What about the MIC (Enterococcus faecium [11]) of the same molecule?
The MIC was 8 µg/mL (≈ 6.78 µM).

And the MIC [12]?
The MIC was 1 µg/mL (≈ 0.847 µM).

And the MIC [13]?
Its MIC is 4 µg/mL (≈ 3.39 µM).

What about the MIC (Enterococcus faecalis [14]) of the same molecule?
The MIC was 4 µg/mL (≈ 3.39 µM).

What about the MIC (Enterococcus sp.) of the same molecule?
Its MIC is 2 µg/mL (≈ 1.69 µM).

What about the MIC (Enterococcus faecium [15]) of the same molecule?
The MIC was 8 µg/mL (≈ 6.78 µM).

What about the MIC (Enterococcus faecalis [16]) of the same molecule?
Its MIC is 16 µg/mL (≈ 13.6 µM).

What about the MIC (Streptococcus agalactiae) of the same molecule?
The MIC was 4 µg/mL (≈ 3.39 µM).

What about the MIC (Streptococcus pneumoniae [17]) of the same molecule?
Its MIC is 8 µg/mL (≈ 6.78 µM).

What about the MIC (Staphylococcus aureus [18]) of the same molecule?
Its MIC is 8 µg/mL (≈ 6.78 µM).

What about the MIC (Enterococcus faecalis [19]) of the same molecule?
Its MIC is 32 µg/mL (≈ 27.1 µM).

And the MIC (Staphylococcus aureus [20])?
The MIC was 2 µg/mL (≈ 1.69 µM).

And the MIC (Micrococcus luteus)?
The MIC was 16 µg/mL (≈ 13.6 µM).

And the MIC (Staphylococcus aureus [21])?
Its MIC is 4 µg/mL (≈ 3.39 µM).

And the MIC (Enterococcus faecalis [22])?
Its MIC is 16 µg/mL (≈ 13.6 µM).

What about the MIC (Staphylococcus aureus [23]) of the same molecule?
Its MIC is 4 µg/mL (≈ 3.39 µM).

What about the MIC (Enterococcus faecalis [24]) of the same molecule?
The MIC was 16 µg/mL (≈ 13.6 µM).

And the MIC (Streptococcus)?
The MIC was 2 µg/mL (≈ 1.69 µM).

And the MIC [25]?
Its MIC is 4 µg/mL (≈ 3.39 µM).

And the MIC [26]?
Its MIC is 1 µg/mL (≈ 0.847 µM).

And the MIC [27]?
Its MIC is 1 µg/mL (≈ 0.847 µM).

And the MIC (Streptococcus pyogenes)?
Its MIC is 2 µg/mL (≈ 1.69 µM).

And the MIC (Enterococcus faecalis [28])?
The MIC was 16 µg/mL (≈ 13.6 µM).

And the MIC (Staphylococcus aureus [29])?
The MIC was 4 µg/mL (≈ 3.39 µM).

And the MIC (Enterococcus faecalis [30])?
Its MIC is 16 µg/mL (≈ 13.6 µM).

What about the MIC (Staphylococcus aureus [31]) of the same molecule?
Its MIC is 2 µg/mL (≈ 1.69 µM).
